Results published in patent publication US3959272A, “Aminoalkyl esters of 2-anilino-nicotinic acids” (Societe Anonyme dite: Hexachime, priority 1972, dated 1976).

What was measured:
[1] = Anti-inflammatory activity: oedema provoked by carragenin in the rat; format: in vivo; details: po, read-out: percentage inhibition of oedema; for inhibition in vivo at 64 mg/kg: 64 mg/kg orally; for inhibition in vivo at 128 mg/kg: 128 mg/kg orally; for inhibition in vivo at 256 mg/kg: 256 mg/kg orally; for inhibition in vivo at 512 mg/kg: 512 mg/kg orally
Protocol: The method used was as follows.
The anti-inflammatory activity was measured on oedema provoked by carragenin in the rat. Groups of six male rats each weighing 120 to 130 g received the compound under test orally in suspension in "tween 80", half the dose being given 2 hours before and the other half 1/2 hour before the subcutaneous plantar injection of 0.05 ml of a 1 % carragenin solution. The volume of the injected paw was measured by plethysmography at regular intervals. Table 1 below gives the percentage inhibition of the oedema with reference to untreated controls.

[2] = Escape test; format: in vivo; details: Mus musculus, ip, 0.5 h, read-out: Percentage inhibition (number of attempts to escape); for change in vivo at 8 mg/kg: 8 mg/kg intraperitoneally; for change in vivo at 16 mg/kg: 16 mg/kg intraperitoneally; for change in vivo at 32 mg/kg: 32 mg/kg intraperitoneally; for change in vivo at 64 mg/kg: 64 mg/kg intraperitoneally; for change in vivo at 128 mg/kg: 128 mg/kg intraperitoneally; for change in vivo at 256 mg/kg: 256 mg/kg intraperitoneally
Protocol: Groups of 8 mice were placed in sub groups of 4 in an enclosure from which they could escape by an inclined plane. The number of attempts to escape during 5 minutes were counted half an hour after intraperitoneal administration of the compound under test.

[3] = Antagonism of convulsions produced by cardiazole; format: in vivo; details: Mus musculus, ip, read-out: Percentage inhibition of tonic convulsions; for inhibition in vivo at 4 mg/kg: 4 mg/kg intraperitoneally; for inhibition in vivo at 8 mg/kg: 8 mg/kg intraperitoneally; for inhibition in vivo at 16 mg/kg: 16 mg/kg intraperitoneally; for inhibition in vivo at 32 mg/kg: 32 mg/kg intraperitoneally; for inhibition in vivo at 64 mg/kg: 64 mg/kg intraperitoneally; for inhibition in vivo at 128 mg/kg: 128 mg/kg intraperitoneally; for inhibition in vivo at 256 mg/kg: 256 mg/kg intraperitoneally
Protocol: Groups of 6 mice received the compound under test 30 minutes before introperitoneal injection of 160 mg/kg of cardiazole. The action of the compound under test on the tonic convulsion phase was observed.

[4] = Analgesic activity: Siegmund's test (phenylbenzoquinone painful reactions); format: in vivo; details: Mus musculus, po, read-out: percentage inhibition of reactions; for inhibition in vivo at 32 mg/kg: 32 mg/kg orally; for inhibition in vivo at 64 mg/kg: 64 mg/kg orally; for inhibition in vivo at 128 mg/kg: 128 mg/kg orally; for inhibition in vivo at 256 mg/kg: 256 mg/kg orally; for inhibition in vivo at 512 mg/kg: 512 mg/kg orally
Protocol: This activity was measured by Siegmund's test in mice and Randall and Selitto's test in the rat.
Groups of six mice received the compound under test orally 1 hour before intraperitoneal injection of 0.2 ml of an 0.02% of solution of phenylbenzoquinone. The number of painful reactiors from the fifth to the tenth minute after the injection of phenylbenzoquinone was counted.

[5] = Analgesic activity: Randall and Selitto's test (beer yeast paw, pain threshold); format: in vivo, rat
Protocol: This activity was measured by Siegmund's test in mice and Randall and Selitto's test in the rat. Groups of ten male rats each weight 120 to 140 g received by subcutaneous plantar injection 0.05 ml of a 5% aqueous suspension of beer yeast. 2 Hours after this treatment they received the compound under test orally and 1 hour after administration of this compound the paw which had been injected and the contralateral paw were subjected to increasing pressure. The appearance of the pain threshold was noted.

[6] = Potentiation of stereotypes by amphetamine; format: in vivo, rat; details: 5 mg/kg dexamphetamine sulphate
Protocol: The compound under test was administered to groups of 5 rats intraperitoneally. Thirty minutes afterwards, 5 mg/kg of dexamphetamine sulphate was injected intraperitoneally. The duration of the phenomenon is counted at regular intervals from 0 to 4 and the counts are added up.

[7] = Solubility in water; format: physicochemical; details: monohydrochloride
[8] = without yeast, 128 mg/kg orally
[9] = without yeast, 256 mg/kg orally

| SMILES | inhibition in vivo at 64 mg/kg [1] | inhibition in vivo at 128 mg/kg [1] | inhibition in vivo at 256 mg/kg [1] | change in vivo at 16 mg/kg [2] | change in vivo at 32 mg/kg [2] | change in vivo at 64 mg/kg [2] | change in vivo at 128 mg/kg [2] | inhibition in vivo at 16 mg/kg [3] | inhibition in vivo at 32 mg/kg [3] | inhibition in vivo at 64 mg/kg [3] | inhibition in vivo at 128 mg/kg [3] | inhibition in vivo at 32 mg/kg [4] | inhibition in vivo at 64 mg/kg [4] | inhibition in vivo at 128 mg/kg [4] | inhibition in vivo at 256 mg/kg [4] | inhibition in vivo at 512 mg/kg [1] | change in vivo at 256 mg/kg [2] | inhibition in vivo at 256 mg/kg [3] | inhibition in vivo at 512 mg/kg [4] | also measured |
| --- | --- | --- | --- | --- | --- | --- | --- | --- | --- | --- | --- | --- | --- | --- | --- | --- | --- | --- | --- | --- |
| Cc1cccc(Nc2ncccc2C(=O)OCCN2CCCCC2)c1C [Example 2, β-Piperidino ethyl nixylate] | 6% | 42% | 70% | -21% | -43% | -80% | -100% | 5% | 22% | 72% | 100% | 24% | 48% | 69% | – | – | – | – | – | change in vivo at 8 mg/kg [2]: 6%; inhibition in vivo at 4 mg/kg [3]: 0%; inhibition in vivo at 8 mg/kg [3]: 16%; percentage increase of pain threshold ([5]; with yeast, 64 mg/kg orally): 5%; percentage increase of pain threshold ([5]; with yeast, 128 mg/kg orally): 30%; percentage increase of pain threshold ([5]; with yeast, 256 mg/kg orally): 87%; percentage increase of pain threshold ([5]; without yeast, 64 mg/kg orally): 0%; percentage increase of pain threshold [5, 8]: 52%; percentage increase of pain threshold [5, 9]: 33% |
| Cc1cccc(Nc2ncccc2C(=O)OCCN2CCN(C)CC2)c1C [Example 4, β-(N-methylpiperazino)ethyl nixylate] | 0% | 50% | 62% | -11% | -37% | -61% | -95% | 0% | 0% | 58% | 91% | 8% | 33% | 69% | 84% | – | – | – | – | change in vivo at 8 mg/kg [2]: 2%; percentage increase of pain threshold ([5]; with yeast, 16 mg/kg orally): 0%; percentage increase of pain threshold ([5]; with yeast, 32 mg/kg orally): 31%; percentage increase of pain threshold ([5]; with yeast, 64 mg/kg orally): 27%; percentage increase of pain threshold ([5]; with yeast, 128 mg/kg orally): 61%; percentage increase of pain threshold ([5]; with yeast, 256 mg/kg orally): 16%; percentage increase of pain threshold ([5]; without yeast, 16 mg/kg orally): 8%; percentage increase of pain threshold ([5]; without yeast, 32 mg/kg orally): 30%; percentage increase of pain threshold ([5]; without yeast, 64 mg/kg orally): 46%; percentage increase of pain threshold [5, 8]: 38%; percentage increase of pain threshold [5, 9]: 10% |
| O=C(OCCN1CCOCC1)c1cccnc1Nc1ccccc1 [Example 5, β-Morpholino ethyl 2-anilino nicotinate] | – | 0% | 17% | -12% | -5% | -23% | -20% | 33% | 33% | 16% | 33% | 16% | 38% | 57% | 83% | 71% | -78% | 100% | – | Sum of the counts (stereotypes) ([6]; 16 mg/kg intraperitoneally): 14; Sum of the counts (stereotypes) ([6]; 64 mg/kg intraperitoneally): 22; Sum of the counts (stereotypes) ([6]; 256 mg/kg intraperitoneally): 44; inhibition in vivo at 4 mg/kg [3]: 0%; inhibition in vivo at 8 mg/kg [3]: 16% |
| Cc1cccc(C)c1Nc1ncccc1C(=O)OCCN1CCOCC1 [Example 6, β-Morpholino ethyl 2-(2,6-dimethylanilino) nicotinate] | 0% | 13% | 36% | -13% | -20% | -35% | -74% | – | – | – | – | – | 23% | 39% | 69% | 80% | -100% | – | 100% | – |
| Cc1ccc(Nc2ncccc2C(=O)OCCN2CCOCC2)cc1Cl [Example 7, β-Morpholino ethyl 2-(3-chloro-4-methylanilino) nicotinate] | – | 2% | 29% | -48% | – | -62% | – | – | – | 0% | 9% | 14% | 33% | 55% | 55% | 53% | -96% | 59% | 77% | – |
| Cc1ccc(Cl)cc1Nc1ncccc1C(=O)OCCN1CCOCC1 [Example 8, β-Morpholino ethyl 2-(2-methyl-5-chloroanilino) nicotinate] | 0% | – | 36% | – | -25% | -52% | -62% | – | 0% | 17% | 33% | – | – | – | 18% | – | -83% | 67% | 74% | Sum of the counts (stereotypes) ([6]; 32 mg/kg intraperitoneally): 89; Sum of the counts (stereotypes) ([6]; 64 mg/kg intraperitoneally): 87; Sum of the counts (stereotypes) ([6]; 128 mg/kg intraperitoneally): 161; Sum of the counts (stereotypes) ([6]; 256 mg/kg intraperitoneally): 195; inhibition in vivo at 512 mg/kg ([3]; 512 mg/kg intraperitoneally): 100% |
| Cc1cccc(Cl)c1Nc1ncccc1C(=O)OCCN1CCOCC1 [Example 9, β-Morpholino ethyl 2-(2-chloro-6-methylanilino) nicotinate] | 20% | – | 39% | -19% | -22% | -59% | -100% | – | – | 0% | 100% | 8% | 8% | 37% | 66% | – | – | – | – | inhibition in vivo at 16 mg/kg ([1]; 16 mg/kg orally): 7%; solubility in water [7]: soluble in water; inhibition in vivo at 16 mg/kg ([4]; 16 mg/kg orally): 14% |
